Experimental data as given in publication PMC4836387 (ACS Chemical Biology, 2016).

Legend:
[1] = system: HIV-1 vector carrying IN mutant Y143R; test: single-round HIV-1 infectivity assay, Y143R IN; assay type: cell-based; settings: for EC50: Human immunodeficiency virus 1, read-out: EC50 Y143R; for Fold-change (FC) in EC50 relative to WT, Y143R: in parentheses
[2] = system: HIV-1 vector carrying IN mutant R263K; test: single-round HIV-1 infectivity assay, R263K IN; assay type: cell-based; settings: for EC50: Human immunodeficiency virus 1, read-out: EC50 R263K; for Fold-change (FC) in EC50 relative to WT, R263K: in parentheses
HIV-1 IN = HIV-1 IN (Human immunodeficiency virus type 1 group M subtype B, UniProt P12497); test: in vitro IN assay, strand transfer; assay type: biochemical; settings: in vitro ST inhibitory IC50, text values
[3] = system: HIV-1 vector carrying IN mutant H51Y/R263K; test: single-round HIV-1 infectivity assay, H51Y/R263K IN; assay type: cell-based; settings: for EC50: Human immunodeficiency virus 1, read-out: EC50 H51Y/R263K; for Fold-change (FC) in EC50 relative to WT, H51Y/R263K: in parentheses
[4] = system: HIV-1 vector carrying IN mutant G140S/Q148H; test: single-round HIV-1 infectivity assay, G140S/Q148H IN; assay type: cell-based; settings: for Fold-change (FC) in EC50 relative to WT, G140S/Q148H: in parentheses
[5] = system: HIV-1 vector carrying IN mutant E92Q; test: single-round HIV-1 infectivity assay, E92Q IN; assay type: cell-based; settings: for EC50: Human immunodeficiency virus 1, read-out: EC50 E92Q; for Fold-change (FC) in EC50 relative to WT, E92Q: in parentheses
[6] = system: HIV-1 vector carrying IN mutant T66I; test: single-round HIV-1 infectivity assay, T66I IN; assay type: cell-based; settings: for EC50: Human immunodeficiency virus 1, read-out: EC50 T66I; for Fold-change (FC) in EC50 relative to WT, T66I: in parentheses
[7] = system: HIV-1 vector carrying IN mutant N155H; test: single-round HIV-1 infectivity assay, N155H IN; assay type: cell-based; settings: for EC50: Human immunodeficiency virus 1, read-out: EC50 N155H; for Fold-change (FC) in EC50 relative to WT, N155H: in parentheses
[8] = system: HIV-1 vector carrying IN mutant G118R; test: single-round HIV-1 infectivity assay, G118R IN; assay type: cell-based; settings: for EC50: Human immunodeficiency virus 1, read-out: EC50 G118R; for Fold-change (FC) in EC50 relative to WT, G118R: in parentheses
[9] = system: HIV-1 vector carrying IN mutant H51Y; test: single-round HIV-1 infectivity assay, H51Y IN; assay type: cell-based; settings: for EC50: Human immunodeficiency virus 1, read-out: EC50 H51Y; for Fold-change (FC) in EC50 relative to WT, H51Y: in parentheses
in vitro = settings: human
[10] = system: lentiviral vector carrying WT IN; test: single-round HIV-1 infectivity assay, WT IN; assay type: cell-based; settings: Human immunodeficiency virus 1, read-out: EC50 (WT IN)

Nc1c(C(=O)NCc2ccc(F)cc2F)c(=O)n(O)c2ncc(CCCO)cc12 [4b]
EC50 [1]: 2.8 ± 0.9 nM
Fold-change (FC) in EC50 relative to WT, Y143R [1]: 0.90
EC50 [2]: 2.5 ± 0.8 nM
Fold-change (FC) in EC50 relative to WT, R263K [2]: 0.81
IC50 (HIV-1 IN): 11 nM
EC50 [3]: 15 ± 2 nM
Fold-change (FC) in EC50 relative to WT, H51Y/R263K [3]: 4.8
Fold-change (FC) in EC50 relative to WT, G140S/Q148H [4]: 4.3
EC50 [5]: 4.8 ± 2 nM
Fold-change (FC) in EC50 relative to WT, E92Q [5]: 1.5
EC50 [6]: 1.1 ± 0.1 nM
Fold-change (FC) in EC50 relative to WT, T66I [6]: 0.35
EC50 [7]: 8.5 ± 3.1 nM
Fold-change (FC) in EC50 relative to WT, N155H [7]: 2.7
EC50 [8]: 10 ± 1.6 nM
Fold-change (FC) in EC50 relative to WT, G118R [8]: 3.2
EC50 [9]: 2.6 ± 0.5 nM
Fold-change (FC) in EC50 relative to WT, H51Y [9]: 0.84
CC50 (in vitro): > 250000 nM
EC50 [10]: 3.1 ± 2 nM

Nc1c(C(=O)NCc2ccc(F)cc2F)c(=O)n(O)c2ncc(CCCCCO)cc12 [4c]
EC50 [1]: 3 ± 0.5 nM
Fold-change (FC) in EC50 relative to WT, Y143R [1]: 2.3
EC50 [2]: 2.6 ± 0.1 nM
Fold-change (FC) in EC50 relative to WT, R263K [2]: 2.0
EC50 [3]: 2.6 ± 1.4 nM
Fold-change (FC) in EC50 relative to WT, H51Y/R263K [3]: 2.0
Fold-change (FC) in EC50 relative to WT, G140S/Q148H [4]: 5.3
EC50 ([4]; read-out: EC50 G140S/Q148H, viral vector carrying IN mutations G140S/Q148H): 6.9 ± 2.3 nM
EC50 [5]: 3.8 ± 2.3 nM
EC50 [6]: 0.93 ± 0.24 nM
Fold-change (FC) in EC50 relative to WT, T66I [6]: 0.72
EC50 [7]: 2.4 ± 0.8 nM
Fold-change (FC) in EC50 relative to WT, N155H [7]: 1.8
EC50 [8]: 5.3 ± 1.6 nM
Fold-change (FC) in EC50 relative to WT, G118R [8]: 4.1
EC50 [9]: 3.8 ± 0.6 nM
Fold-change (FC) in EC50 relative to WT, H51Y [9]: 2.9
CC50 (in vitro): > 250000 nM
EC50 [10]: 1.3 ± 0.2 nM

Nc1c(C(=O)NCc2ccc(F)cc2F)c(=O)n(O)c2ncc(CCCCCCO)cc12 [4d]
EC50 [1]: 2.1 ± 1.4 nM
Fold-change (FC) in EC50 relative to WT, Y143R [1]: 0.91
EC50 [2]: 8.4 ± 2.3 nM
Fold-change (FC) in EC50 relative to WT, R263K [2]: 3.7
EC50 [3]: 5.2 ± 1.6 nM
Fold-change (FC) in EC50 relative to WT, H51Y/R263K [3]: 2.3
Fold-change (FC) in EC50 relative to WT, G140S/Q148H [4]: 4.1
EC50 [5]: 0.74 ± 0.13 nM
Fold-change (FC) in EC50 relative to WT, E92Q [5]: 0.32
EC50 [6]: 0.5 ± 0.35 nM
Fold-change (FC) in EC50 relative to WT, T66I [6]: 0.22
EC50 [7]: 2.7 ± 1 nM
Fold-change (FC) in EC50 relative to WT, N155H [7]: 1.2
EC50 [8]: 6.4 ± 2.5 nM
Fold-change (FC) in EC50 relative to WT, G118R [8]: 2.8
EC50 [9]: 1.6 ± 0.1 nM
Fold-change (FC) in EC50 relative to WT, H51Y [9]: 0.70
CC50 (in vitro): > 250000 nM
EC50 [10]: 2.3 ± 0.6 nM

Nc1c(C(=O)NCc2ccc(F)cc2F)c(=O)n(O)c2ncc(CCCCCCCCO)cc12 [4e]
EC50 [1]: 3.2 ± 0.8 nM
Fold-change (FC) in EC50 relative to WT, Y143R [1]: 0.86
EC50 [2]: 3.8 ± 1.1 nM
Fold-change (FC) in EC50 relative to WT, R263K [2]: 1.0
IC50 (HIV-1 IN): 5 nM
EC50 [3]: 22 ± 8 nM
Fold-change (FC) in EC50 relative to WT, H51Y/R263K [3]: 5.9
Fold-change (FC) in EC50 relative to WT, G140S/Q148H [4]: 2.1
EC50 [5]: 2.6 ± 0.2 nM
Fold-change (FC) in EC50 relative to WT, E92Q [5]: 0.70
EC50 [6]: 1.7 ± 0.5 nM
Fold-change (FC) in EC50 relative to WT, T66I [6]: 0.46
EC50 [7]: 6.5 ± 2.7 nM
Fold-change (FC) in EC50 relative to WT, N155H [7]: 1.8
EC50 [8]: 11 ± 1 nM
Fold-change (FC) in EC50 relative to WT, G118R [8]: 3.0
EC50 [9]: 4.8 ± 1.1 nM
Fold-change (FC) in EC50 relative to WT, H51Y [9]: 1.3
CC50 (in vitro): > 250000 nM
EC50 [10]: 3.7 ± 0.4 nM

Nc1c(C(=O)NCc2ccc(F)cc2F)c(=O)n(O)c2ncc(CCS(=O)(=O)c3ccccc3)cc12 [4f]
EC50 [1]: 0.6 ± 0.1 nM
Fold-change (FC) in EC50 relative to WT, Y143R [1]: 0.3
EC50 [2]: 5.3 ± 0.8 nM
Fold-change (FC) in EC50 relative to WT, R263K [2]: 2
EC50 [3]: 5.3 ± 0.4 nM
Fold-change (FC) in EC50 relative to WT, H51Y/R263K [3]: 2
Fold-change (FC) in EC50 relative to WT, G140S/Q148H [4]: 3
EC50 [5]: 1.2 ± 0.6 nM
Fold-change (FC) in EC50 relative to WT, E92Q [5]: 0.6
EC50 [6]: 0.7 ± 0.1 nM
Fold-change (FC) in EC50 relative to WT, T66I [6]: 0.3
EC50 [7]: 2.1 ± 1.2 nM
Fold-change (FC) in EC50 relative to WT, N155H [7]: 1
EC50 [8]: 11.4 ± 3.5 nM
Fold-change (FC) in EC50 relative to WT, G118R [8]: 6
EC50 [9]: 0.8 ± 0.5 nM
Fold-change (FC) in EC50 relative to WT, H51Y [9]: 0.4
CC50 (in vitro): > 250000 nM
EC50 [10]: 2 ± 0.1 nM

Cc1nnc(C(=O)NC(C)(C)c2nc(C(=O)NCc3ccc(F)cc3)c(O)c(=O)n2C)o1 [compound 1, raltegravir, reference compound]
EC50 [3]: 6 ± 2.3 nM
EC50 [5]: 30 ± 10 nM
EC50 [6]: 2.8 ± 0.4 nM
EC50 [9]: 3.4 ± 0.2 nM

COc1cc2c(cc1Cc1cccc(Cl)c1F)c(=O)c(C(=O)O)cn2[C@H](CO)C(C)C [compound 2, elvitegravir, reference compound]
EC50 [1]: 7.9 ± 2.3 nM
Fold-change (FC) in EC50 relative to WT, Y143R [1]: 1.2
EC50 [2]: 10 ± 6 nM
Fold-change (FC) in EC50 relative to WT, R263K [2]: 1.6
EC50 [3]: 53 ± 18 nM
Fold-change (FC) in EC50 relative to WT, H51Y/R263K [3]: 8
Fold-change (FC) in EC50 relative to WT, G140S/Q148H [4]: 891
EC50 [5]: 154 ± 34 nM
Fold-change (FC) in EC50 relative to WT, E92Q [5]: 24
EC50 [6]: 66 ± 1 nM
Fold-change (FC) in EC50 relative to WT, T66I [6]: 10
EC50 [7]: 90 ± 18 nM
Fold-change (FC) in EC50 relative to WT, N155H [7]: 14
EC50 [8]: 21 ± 10 nM
Fold-change (FC) in EC50 relative to WT, G118R [8]: 3.3
EC50 [9]: 4.5 ± 2.1 nM
Fold-change (FC) in EC50 relative to WT, H51Y [9]: 0.7
CC50 (in vitro): > 250000 nM
EC50 [10]: 6.4 ± 0.8 nM

C[C@@H]1CCO[C@H]2Cn3cc(C(=O)NCc4ccc(F)cc4F)c(=O)c(O)c3C(=O)N12 [compound 3, dolutegravir, reference compound]
EC50 [3]: 16 ± 2 nM
EC50 [5]: 2.3 ± 0.4 nM
EC50 [6]: 0.9 ± 0.8 nM
EC50 [9]: 3.2 ± 0.2 nM
